# From US20230277569A1, “Compositions and Methods for Treating, Ameliorating and/or Preventing Cancer and Kits for the Same” (priority 2022, published 2023)
# Several values for one entry are separate records, joined by “and”; a condition that tells them apart may be missing. Identical values can stand only once. Entries after “also recorded” stand apart in the source; their conditions may differ. Like-named read-outs stand apart in the source and are kept apart here.
# Experiments:
# CYP2C8 = CYP2C8 (Homo sapiens, UniProt P10632); experiment: CYP inhibition in liver microsomes, CYP2C8; assay type: in vitro ADME; conditions: human liver microsomes 0.1 mg/mL
# Chain of CYP2C8 (P10632 whole entry): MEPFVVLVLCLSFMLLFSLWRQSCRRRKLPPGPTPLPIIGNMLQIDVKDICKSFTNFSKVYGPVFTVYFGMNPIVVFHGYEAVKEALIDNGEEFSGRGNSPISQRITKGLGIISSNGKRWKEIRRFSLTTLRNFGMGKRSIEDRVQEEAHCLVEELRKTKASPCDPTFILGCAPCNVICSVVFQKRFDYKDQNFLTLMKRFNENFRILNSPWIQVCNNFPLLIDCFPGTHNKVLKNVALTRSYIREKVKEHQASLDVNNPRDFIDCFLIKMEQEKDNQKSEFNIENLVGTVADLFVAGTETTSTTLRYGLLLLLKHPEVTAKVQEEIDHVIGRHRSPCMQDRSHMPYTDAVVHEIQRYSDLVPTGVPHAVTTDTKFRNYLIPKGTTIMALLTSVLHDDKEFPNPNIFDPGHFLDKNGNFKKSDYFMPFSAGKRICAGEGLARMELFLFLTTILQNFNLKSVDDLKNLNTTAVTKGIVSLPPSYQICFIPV
# Protocol: After addition of prototypical CYP substrates in 250 μL, samples were incubated for 10 min (CYP1A2, CYP2B6, CYP2C9, and CYP3A4) or 20 min (CYP2C8) at 37° C. in 5% CO2. […] Samples were analyzed for metabolite formation by LC-MS/MS. The results were expressed using the peak area ratio of analyte to internal standard, based on the calibration curves.
# where Range=fitted uninhibited value, s=slope factor, x=inhibitor concentration, y=% control activity.
# Sprague-Dawley rats = experiment: Toxicity and toxicokinetics in rats, IV twice weekly for 29 d; assay type: in vivo; conditions: for reduction in mean body weights: male rats
# Protocol: Ninety-six male and female Sprague-Dawley rats (6-7 weeks old) were received from Charles River Laboratories, (Raleigh, N.C.) and catheterized via a femoral vein prior to arrival. Animals were acclimated in individual stainless-steel cages with access to water and Certified Rodent Diet #2014C (Envigo RMS) ad libitum for 6 d prior to study initiation. Environmental controls were set to maintain a temperature range of 20 to 26° C., a relative humidity range of 30 to 70%, eight or greater air changes/h, and a 12-h light/dark cycle. Animals were infused with sterile isotonic (0.9%) saline for a minimum of 4 d (0.20 mL/h for males or 0.15 mL/h for females) during the predose phase. At initiation of dosing, animals were 8 to 9 weeks old, and body weights ranged from 283 to 341 g for males and 188 to 238 g for females. Gamitrinib formulated as indicated above was administered by IV infusion on d […], 8, 11, 15, 18, 22, 25, and 29 of the dosing phase at 1, 10, 25 mg/kg/dose and dose volume of 5 mL/kg. The vehicle control administered with the same schedule contained 2.5% DMSO, 0.125% polysorbate 80, 0.031% lecithin, 1.25% sucrose and 4.375% dextrose. Animals were checked twice daily throughout the duration of the study for mortality, abnormalities, and signs of pain or distress. Detailed observations were conducted for each animal up to two times during the predose phase and for each toxicity animal prior to dosing on d 1, 8, 15, 22, and 29 of the dosing phase and on d 1, 7, and 14 of the recovery phase. Blood samples were collected on d. 1, 4 and 29 of the dosing phase 5 min, 1 h and 24 h post-dose, maintained on chilled cryoracks and centrifuged within 1 h of collection. Tissue samples harvested from each animal were embedded in paraffin, sectioned, and slides were prepared and stained with hematoxylin and eosin.
# [1] = Gamitrinib pharmacokinetics (PK) in rat plasma, single IV dose; assay type: in vivo, Sprague-Dawley rats; conditions: for 17-AG plasma concentration after IV Gamitrinib: Gamitrinib 5 mg/kg IV
# Protocol: Sprague-Dawley rats (n=3) were administered a single intravenous (IV) dose of 1 mL Gamitrinib (5 mg/kg) formulated as described above without added microfluidization. Blood samples were collected via lateral tail vein using K2EDTA as an anticoagulant at 0.083, 0.25, 0.5, 1, 2, 4 and 24 h post-dose, chilled on ice and centrifuged at 5000 rpm for 10 min. Aliquots (0.2 mL) of each plasma sample were stored frozen at −20° C. For analysis, 50 μL aliquots of study samples were mixed with 50 μL of ACN/H2O (50:50), extracted by protein precipitation using ACN containing the internal standard Gamitrinib-d15 (100 ng/mL), and aliquots of supernatant were mixed with deionized water for Gamitrinib determination. Batch samples under analysis included a calibration curve, a matrix blank (blank rat plasma), a reagent blank, a control zero (blank rat plasma spiked with internal standard), and duplicate QC samples at 3 concentration levels (low, medium, and high) in addition to the study samples. Within each batch, the study samples were bracketed by calibration standards or QC samples. The lowest calibration standard served to evaluate system suitability at the beginning of each batch. […] Overall, the concentration of Gamitrinib was measured in 21 rat plasma samples in 1 analytical batch using LC-MS/MS data acquisition on a Shimadzu Nexera LC system coupled with an AB Sciex Triple Quad 5500 mass spectrometer. Chromatograms were integrated using Analyst 1.6.2 software. A weighted (1/x^2, x=concentration) linear regression was used to generate the calibration curve for Gamitrinib. […] The mean, standard deviation, precision, accuracy, and assay variability were calculated using Microsoft Excel.
# [2] = 5 mg/kg IV, individual animals Rat 1-3
compound,measurement,setting,value
"CO[C@H]1/C=C\C=C(/C)C(=O)NC2=CC(=O)C(NCCCCCC[P+](c3ccccc3)(c3ccccc3)c3ccccc3)=C(C[C@@H](C)C[C@H](OC)[C@H](O)[C@@H](C)/C=C(\C)[C@@H]1OC(N)=O)C2=O [Gamitrinib, 17-Demethoxy-17-((6-(triphenylphosphonio)hexyl)amino)geldanamycin]",IC50,CYP2C8,8 µM
same,reduction in mean body weights,Sprague-Dawley rats; 10 mg/kg/dose IV twice weekly,−5.5%
same,reduction in mean body weights,Sprague-Dawley rats; 25 mg/kg/dose IV twice weekly,−5.7%
same,urinalysis or ophthalmic changes,Sprague-Dawley rats; rats,No effects
same,Gamitrinib-related clinical observations,Sprague-Dawley rats; rats administered 10 mg/kg/dose,"inguinal swelling, piloerection, hypoactivity, and sensitivity to touch at the infusion site"
same,microscopic findings at the infusion site,Sprague-Dawley rats; rats administered 10 mg/kg/dose (both sexes),mixed cell inflammation at the catheter/infusion site
same,kidney histology,"Sprague-Dawley rats; rats, 25 mg/kg/dose IV, 25 mg/kg",slight kidney tubule degeneration/regeneration; also recorded: marked kidney tubule degeneration/regeneration; also recorded: tubular degeneration/regeneration
same,serum urea nitrogen (UN) and creatinine concentrations,"Sprague-Dawley rats; rats, 25 mg/kg/dose, 25 mg/kg",Minimally to mildly higher; also recorded: mild elevation of urea nitrogen
same,serum urea nitrogen,"Sprague-Dawley rats; rats, >10 mg/kg/dose",mild elevation
same,no observed adverse effect level (NOAEL),"Sprague-Dawley rats; rats, IV twice weekly 29 d",1 mg/kg/dose
same,severely toxic dose in 10% of the animals (STD 10),"Sprague-Dawley rats; rats, IV twice weekly 29 d",10 mg/kg/dose
same,Alterations in clinical chemistry parameters,"Sprague-Dawley rats; rats, highest Gamitrinib dose level tested","mildly to moderately higher neutrophil and platelet (Plts) counts, minimally prolonged partial thromboplastin time (PT), lower albumin, higher globulin, and alkaline phosphatase concentrations"
same,drug accumulation,"Sprague-Dawley rats; rats, Cmax and AUC0-24 similar on d 4 and d 29",no drug accumulation after multiple doses
same,Gamitrinib-related mortality,"Sprague-Dawley rats; toxicity rats, 10 mg/kg/dose",one male
same,Gamitrinib-related mortality,"Sprague-Dawley rats; toxicity rats, 25 mg/kg/dose",two males and one female
same,Gamitrinib-related mortality,"Sprague-Dawley rats; toxicokinetic rats, 10 mg/kg/dose",two toxicokinetic females
same,Gamitrinib-related mortality,"Sprague-Dawley rats; toxicokinetic rats, 25 mg/kg/dose",one toxicokinetic female
same,t1/2,"[1]; 5 mg/kg IV, Sprague-Dawley rats, individual animals Rat 1-3",11.107 h and 14.022 h
same,t1/2 (terminal phase half-life),"[1]; 5 mg/kg IV, Sprague-Dawley rats, mean, n=3",12.25 ± 1.55 h
same,Gamitrinib plasma concentration,"[1]; 5 mg/kg IV, 5 min, animals 1-3",674.432 ng/mL and 622.199 ng/mL
same,Gamitrinib plasma concentration,"[1]; 5 mg/kg IV, 15 min, animals 1-3",128.663 ng/mL and 180.951 ng/mL
same,Gamitrinib plasma concentration,"[1]; 5 mg/kg IV, 30 min, animals 1-3",67.204 ng/mL and 106.381 ng/mL
same,Gamitrinib plasma concentration,"[1]; 5 mg/kg IV, 60 min, animals 1-3",65.903 ng/mL and 55.991 ng/mL
same,Gamitrinib plasma concentration,"[1]; 5 mg/kg IV, 120 min, animals 1-3",43.125 ng/mL and 29.914 ng/mL
same,Gamitrinib plasma concentration,"[1]; 5 mg/kg IV, 240 min, animals 1-3",34.776 ng/mL and 28.905 ng/mL
same,Gamitrinib plasma concentration,"[1]; 5 mg/kg IV, 1440 min, animals 1-3",10.511 ng/mL and 10.365 ng/mL
same,AUCINF,[1]; [2],957.472 ng·h/mL and 918.784 ng·h/mL
same,AUClast,[1]; [2],789.045 ng·h/mL and 709.112 ng·h/mL
same,CL,[1]; [2],87.035 mL/min/kg and 90.700 mL/min/kg
same,Cmax,[1]; [2],829.668 ng/mL and 1544.041 ng/mL
same,MRT,[1]; [2],5.411 h and 5.524 h
same,Vss,[1]; [2],60.052 L/kg and 78.131 L/kg
same,Vz,[1]; [2],83.678 L/kg and 110.085 L/kg
same,AUClast (AUC0-t),"[1]; 5 mg/kg IV, mean, n=3",783.199 ng·h/mL
same,CL (clearance),"[1]; 5 mg/kg IV, mean, n=3",85.656 ± 5.856 mL/min/kg and 85.65 ± 5.85 mL/min/kg
same,17-AG plasma concentration after IV Gamitrinib,"[1]; 30 min, animals 1-3",BLOQ
same,17-AG plasma concentration after IV Gamitrinib,"[1]; 60 min, animals 1-3",BLOQ
same,17-AG plasma concentration after IV Gamitrinib,"[1]; 120 min, animals 1-3",BLOQ
same,17-AG plasma concentration after IV Gamitrinib,"[1]; 240 min, animals 1-3",BLOQ
same,17-AG plasma concentration after IV Gamitrinib,"[1]; 1440 min, animals 1-3",BLOQ
same,concentration at 5 min,"[1]; Sprague-Dawley, rat, plasma, intravenous, 5 mg/kg, 5 mg/kg IV, 5 min, animals 1-3",526 ng/mL
same,concentration at 15 min,"[1]; Sprague-Dawley, rat, plasma, intravenous, 5 mg/kg, 5 mg/kg IV, 15 min, animals 1-3",212 ng/mL
same,concentration at 30 min,"[1]; Sprague-Dawley, rat, plasma, intravenous, 5 mg/kg, 5 mg/kg IV, 30 min, animals 1-3",114 ng/mL
same,concentration at 60 min,"[1]; Sprague-Dawley, rat, plasma, intravenous, 5 mg/kg, 5 mg/kg IV, 60 min, animals 1-3",71.4 ng/mL
same,concentration at 120 min,"[1]; Sprague-Dawley, rat, plasma, intravenous, 5 mg/kg, 5 mg/kg IV, 120 min, animals 1-3",46.7 ng/mL
same,concentration at 240 min,"[1]; Sprague-Dawley, rat, plasma, intravenous, 5 mg/kg, 5 mg/kg IV, 240 min, animals 1-3",36.8 ng/mL
same,concentration at 1440 min,"[1]; Sprague-Dawley, rat, plasma, intravenous, 5 mg/kg, 5 mg/kg IV, 1440 min, animals 1-3",11.9 ng/mL
same,half-life,"[1]; Sprague-Dawley, rat, plasma, iv, 5 mg/kg, 5 mg/kg IV, Sprague-Dawley rats, individual animals Rat 1-3, read-out: t1/2 (converted)",11.6 h
same,half-life,"[1]; Sprague-Dawley, rat, plasma, iv, 5 mg/kg, 5 mg/kg IV, Sprague-Dawley rats, mean, n=3, read-out: t1/2 (terminal phase half-life) (converted)",12.2 ± 1.55 h
same,AUC(0-inf),"[1]; Sprague-Dawley, rat, plasma, iv, 5 mg/kg, 5 mg/kg IV, individual animals Rat 1-3",1050 ng·h/mL
same,AUC(0-t),"[1]; Sprague-Dawley, rat, plasma, iv, 5 mg/kg, 5 mg/kg IV, individual animals Rat 1-3, read-out: AUClast",851 ng·h/mL
same,clearance,"[1]; Sprague-Dawley, rat, plasma, iv, 5 mg/kg, 5 mg/kg IV, individual animals Rat 1-3, read-out: CL",79.2 mL/min/kg
same,Cmax,"[1]; Sprague-Dawley, rat, plasma, iv, 5 mg/kg, 5 mg/kg IV, individual animals Rat 1-3, read-out: Cmax",1150 ng/mL
same,MRT,"[1]; Sprague-Dawley, rat, plasma, iv, 5 mg/kg, 5 mg/kg IV, individual animals Rat 1-3, read-out: MRT",5.54 h
same,Vd,"[1]; Sprague-Dawley, rat, plasma, iv, 5 mg/kg, 5 mg/kg IV, individual animals Rat 1-3, read-out: Vss",58.2 L/kg
same,Vd,"[1]; Sprague-Dawley, rat, plasma, iv, 5 mg/kg, 5 mg/kg IV, individual animals Rat 1-3, read-out: Vz",79.7 L/kg
same,AUC(0-inf),"[1]; Sprague-Dawley, rat, plasma, iv, 5 mg/kg, 5 mg/kg IV, mean, n=3",976 ng·h/mL
same,AUC(0-t),"[1]; Sprague-Dawley, rat, plasma, iv, 5 mg/kg, 5 mg/kg IV, mean, n=3, read-out: AUClast (AUC0-t)",783 ± 71.3 ng·h/mL
same,clearance,"[1]; Sprague-Dawley, rat, plasma, iv, 5 mg/kg, 5 mg/kg IV, mean, n=3, read-out: CL (clearance)",85.6 ± 5.8 mL/min/kg
same,Cmax,"[1]; Sprague-Dawley, rat, plasma, iv, 5 mg/kg, 5 mg/kg IV, mean, n=3, read-out: Cmax",1180 ng/mL
same,MRT,"[1]; Sprague-Dawley, rat, plasma, iv, 5 mg/kg, 5 mg/kg IV, mean, n=3, read-out: MRT",5.49 h
same,Vd,"[1]; Sprague-Dawley, rat, plasma, iv, 5 mg/kg, 5 mg/kg IV, mean, n=3, read-out: Vss",65.5 L/kg
same,Vd,"[1]; Sprague-Dawley, rat, plasma, iv, 5 mg/kg, 5 mg/kg IV, mean, n=3, read-out: Vz",91.2 L/kg
same,generation of 17-AG by Gamitrinib metabolism in rats,[1]; in words,did not generate detectable levels
